Patent US12679845B2, “Crystal form of triazolopyridine-substituted indazole compound and preparation method therefor” (SHENZHEN OPTIMUM BIOLOGICAL TECHNOLOGY CO., LTD, priority 2021, dated 2026)

Assays:
[1] = Hygroscopicity study by dynamic vapor sorption (DVS); type: physicochemical; conditions: 25° C.; for Hygroscopic weight gain (ΔW): 80% RH compared to 0% RH
Method: • Instrument model: TA Discovery TGA 5500 thermal gravimetric analyzer • Test method: The sample (2 to 5 mg) is placed in a platinum pot and tested under the protection of 25 mL/min dry nitrogen, and the method is: heating from room temperature to 350° C. at a rate of 10° C./min. Dynamic Vapor Sorption (DVS) Method of the Present Disclosure • Instrument model: SMS (Surface Measurement Systems) dynamic vapor sorption analyzer • Test conditions: The sample (10 to 15 mg) is taken and placed in a DVS sample dish for testing.
The detailed DVS parameters are as follows: • Temperature: 25° C. • Equilibrium: dm/dt=0.002%/min (minimum: 10 min, maximum: 180 min) • Drying: drying for 120 min under 0% RH RH (%) Test Gradient: • 10% (0% RH to 90% RH, 90% RH to 0% RH) • 5% (90% RH to 95% RH, 95% RH to 90% RH) RH (%) • RH (%) test gradient range: 0% to 95%
SMS DVS Advantage dynamic vapor sorption analyzer
10 to 15 mg of the crystal form S of the compound of formula (I) was taken and placed in a DVS sample disk for testing.

[2] = tested on: MMTV transcriptional activity (GR); assay: MMTV_GR transcriptional activation activity assay, luciferase reporter gene in HeLa cells; type: cell-based
Source text: Experimental Example 2: In Vitro Assay of Compounds for Activation of MMTV Transcriptional Activity in Luciferase Reporter Gene Screening System
The mouse mammary tumor virus (MMTV) promoter contains specific binding sites that activate GR (GREs). To determine the activity of the compound, a reporter gene (luciferase) was inserted behind the MMTV promoter, and the structure was expressed in a stable manner in the genome of the HeLa cell line. The MMTV promoter was activated using the test compound to induce the luciferase expression, and its activity was detected by luminescence measurements.
The final DMSO experimental concentration was 0.1%.
MMTV_GR Transcriptional Activation Activity Assay
1) Cell inoculation: Fresh cells were inoculated into a 384-well white transparent bottom assay plate at 4×10^3 cells/30 μL/well and incubated in a 37° C., 5% CO2 incubator for 24 hours.
2) Compound preparation: The compound plate was configured before the start of the experiment. […]
4) 30 μL of Bright-Glo fluorescence assay reagent was transferred to the cell plate. […]
6) The fluorescence value was determined using an Envision plate reader. […]
The concentration curve of the test compound was plotted using the graphing software GraphPad Prism5, and the […] value was calculated.

[3] = In vivo PK study in Lewis female rats; conditions: rat, po 0.3 mg/kg, plasma
Method: The animals were weighed before administration, and the administration volume was calculated based on the body weight.
Approximately 0.2 mL of whole blood sample was collected at the specified time by jugular venipuncture (or other appropriate blood collection site), and the actual blood collection time was recorded in the experimental record. The acceptable error for the collection time point is ±1 minute within 1 hour after administration, and ±5% of the theoretical time for other time points. All blood samples were immediately transferred to labeled commercial centrifuge tubes containing K2-EDTA. After collection, the blood sample was centrifuged at 4° C., 3200 g for 10 minutes to aspirate the supernatant plasma, which was immediately placed in dry ice and then stored at −60° C. or lower for LC-MS/MS analysis.
The concentration of the test sample in plasma was determined by the LC-MS/MS bioanalytical method.

[4] = Solid stability test (XRPD) under high temperature, high humidity and strong light; type: physicochemical
Source text: For samples placed under high temperature and high humidity conditions, the vial was sealed with aluminum foil punched with small holes to ensure that the samples could fully contact with the ambient air; for samples placed under strong light conditions, the vial was sealed with a threaded cap. The samples placed under different conditions were sampled and detected (XRPD) on day 5, day 10, and month 3, and the results were compared with the initial results on day 0.

Row | SMILES | Hygroscopic weight gain (ΔW) [1] | EC50 ([2]; Homo sapiens, 20 to 24 h, read-out: TA (MMTV transcriptional activation activity) EC50) | TA (MMTV transcriptional activation activity) Effect ([2]; positive control 1000 nM Dexamethasone) | AUC [3] | Cmax [3] | Tmax [3] | half-life [3] | Crystal form (XRPD) ([4]; Day 0, initial) | Crystal form (XRPD) ([4]; High humidity (room temperature/relative humidity: 92.5%, open), Day 5) | Crystal form (XRPD) ([4]; High humidity (room temperature/relative humidity: 92.5%, open), Day 10) | Crystal form (XRPD) ([4]; High humidity (room temperature/relative humidity: 92.5%, open), Month 3) | Crystal form (XRPD) ([4]; High temperature (60° C., open), Day 5) | Crystal form (XRPD) ([4]; High temperature (60° C., open), Day 10) | Crystal form (XRPD) ([4]; High temperature (60° C., open), Month 3) | Crystal form (XRPD) ([4]; Strong light (5000 lx, sealed), Day 5) | Crystal form (XRPD) ([4]; Strong light (5000 lx, sealed), Day 10) | Crystal form (XRPD) ([4]; Strong light (5000 lx, sealed), Month 3) | Classification of hygroscopicity ([1]; 80% RH) | Hygroscopic weight gain (ΔW) ([1]; listed as crystal form Q of the compound of formula (I))
1 | CC(C)[C@H](NC(=O)C(C)(F)F)[C@H](Oc1ccc2c(cnn2-c2ccc3nncn3c2)c1)c1ccccc1 [listing 1 of 2 here] | 0.6% |  |  |  |  |  |  |  |  |  |  |  |  |  |  |  |  |  | 
2 | CC(C)[C@H](NC(=O)C(C)(F)F)[C@H](Oc1ccc2c(cnn2-c2ccc3nncn3c2)c1)c1ccccc1 [listing 2 of 2 here] |  | 7.72 nM | 63.86% | 3.15 µM·h | 361 nM | 4.5 h | 3.57 h | Crystal form Q | Crystal form Q | Crystal form Q | Crystal form Q | Crystal form Q | Crystal form Q | Crystal form Q | Crystal form Q | Crystal form Q | Crystal form Q | slightly hygroscopic | 0.21%
